Data on 7 compounds can be found in patent publication EP1956016A1, “Bicyclic acyltryptophanols” (Bayer Schering Pharma Aktiengesellschaft, priority 2006, dated 2008).

This assay deals with T1, human FSH receptor (Homo sapiens, UniProt P23945).
T1 construct: expressed in transfected cells; host or cells: CHO cells (hFSHR clone 16)
T1 sequence (P23945 18-695): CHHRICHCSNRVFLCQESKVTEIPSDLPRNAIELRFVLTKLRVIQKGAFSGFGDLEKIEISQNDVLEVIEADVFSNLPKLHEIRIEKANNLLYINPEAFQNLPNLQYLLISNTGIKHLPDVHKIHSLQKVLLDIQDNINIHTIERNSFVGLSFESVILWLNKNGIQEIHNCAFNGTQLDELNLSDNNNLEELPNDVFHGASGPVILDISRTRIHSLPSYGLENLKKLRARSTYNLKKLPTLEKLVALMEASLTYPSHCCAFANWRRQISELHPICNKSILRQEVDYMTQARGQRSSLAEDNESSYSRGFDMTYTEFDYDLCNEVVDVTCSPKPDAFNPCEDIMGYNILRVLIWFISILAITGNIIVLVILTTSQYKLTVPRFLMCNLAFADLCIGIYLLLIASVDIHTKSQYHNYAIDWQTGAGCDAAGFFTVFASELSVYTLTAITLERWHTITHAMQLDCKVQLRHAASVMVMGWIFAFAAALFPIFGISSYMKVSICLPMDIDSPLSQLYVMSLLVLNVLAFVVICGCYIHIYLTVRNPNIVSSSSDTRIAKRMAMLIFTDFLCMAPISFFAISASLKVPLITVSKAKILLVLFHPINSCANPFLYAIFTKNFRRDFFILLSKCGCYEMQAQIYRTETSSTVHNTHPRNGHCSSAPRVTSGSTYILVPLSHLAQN
Briefly: HTRF assay for measuring cAMP in cells (FSH antagonism). The format is cell-based. To be noted: hFSHR clone 16 cells (CHO cells stably transfected with the human FSH receptor); in the presence of 1 e-9 mol/l hFSH; 37°C for 2h. How it is done: HTRF assay for measuring cAMP in cells
The method is based on a competitive immunoassay between native cAMP, which has been produced by the cells, and cAMP which is labelled with XL665. The tracer binding was visualized by a monoclonal antibody, anti-cAMP labelled with cryptate [HTRF = homogeneous time-resolved fluorescence].
The specific signal is inversely proportional to the cAMP concentration of the samples employed.
The 665nm/ 620nm fluorescence ratio was evaluated.
The following material was used: 96-well plates for the tissue culture, 96-well plates with black edge and black base (e.g. Fluotrac 600 from Greiner), 96-well plates for the substance dilutions of polypropylene and CAMP Femtomolar (4000wells Kit, CIS Bio International # 62AM1PEC).
The following reagents were used: BSA (bovine serum albumin) Fraction V protease-free, IBMX (3-isobutyl-1-methylxanthine), hFSH (human follicle stimulating hormone), Triton X-100 analytical grade, potassium fluoride analytical grade, G 418 (Geneticin) and Accutase.
Buffer 1 (washing and testing buffer) contained PBS, 1 mM CaCl2, 1 mM MgCl2, 0.2% glucose; 0.1% BSA, 1 mM IBMX.
Buffer 2 (2x lysis buffer) contained 1 % Triton X-100 in PBS (without CaCl2 and MgCl2).
Buffer 3 (assay buffer) contained 50 mM potassium phosphate buffer (pH 7.0); 800 mM potassium fluoride; 0.2% BSA (always added fresh).
On day 1, the cells were seeded in 96-well plates (3x10^4 cells per well hFSHR clone 16 cells (CHO cells stably transfected with the human FSH receptor in 150 µl of medium). The next day, test substance dilutions were made up. For this purpose, all the substances were diluted in ice-cold buffer 1 (with or without hFSH), and the substance dilutions were placed on ice until applied to the cells.
The cell supernatant was then aspirated off, and the cells were washed 2x with 200 µl of buffer 1. The cells were treated with 60 µl of the appropriate substance concentrations at 37°C for 2h. The cells were then lysed with 60 µl of buffer 2 (put onto the supernatant) (on a plate shaker at RT for 30 min).
The test conjugates (XL-665 and anti-cAMP cryptate) were diluted in buffer 3 in accordance with the manufacturers' information. The actual mixture for measurement was pipetted into a black 96-well plate (in each case 15 µl of the cell lysate diluted with 35 µl of buffer 1; firstly 25 µl of XL-665 conjugate were pipetted and, after 10 min, 25 µl of the anti-cAMP cryptate were added). This is followed by incubation at RT for 90 minutes. The measurement was carried out in a PheraStar (BMG).
Tissue culture conditions
1) hFSHr clone 16 Ham's F12 PSG 10% FCS 700 µg/ml G 418 (Geneticin) from PAA.
Dose-effect curve (hFSH) for the human receptor: 1 e-8, 3e-9, 1 e-9, 3e-10, 1e-10, 3e-11, 1e-11, 3e-12 mol/l.
The test substances were employed in suitable dilutions in the absence (test for agonism) and in the presence of 1 e-9 mol/l hFSH.
The values of the well ratio were averaged and then entered directly in SigmaPlot versus the concentrations. The maximum and minimum values were determined for each plate, and half the difference is to be regarded as IC50.
In general terms: In TR-FRET formats the signal depends on donor and acceptor labels being close together.
Turning to `CCC1Cc2cc(-c3ccc(OC)c(OC)c3)cc(C(=O)N[C@@H](CO)Cc3c[nH]c4ccccc34)c2O1` (stereo partly drawn) [Example 13, 5-(3,4-Dimethoxy-phenyl)-2-ethyl-2,3-dihydro-benzofuran-7-carboxylic acid [(R)-1-hydroxymethyl-2-(1H-indol-3-yl)-ethyl]-amide], the IC50 (commonly the concentration at which inhibition is half-maximal) worked out at 0.15 µM.

As for `COc1cc(-c2cc3c(c(C(=O)N[C@@H](CO)Cc4c[nH]c5ccccc45)c2)OCC3)cc(F)c1F` [Example 20, 5-(3,4-Difluoro-5-methoxy-phenyl)-2,3-dihydro-benzofuran-7-carboxylic acid [(R)-2-hydroxy-1-(1H-indol-3-ylmethyl)-ethyl]-amide], the IC50 was 2 µM. `CNC(=O)c1ccc(-c2cc3c(c(C(=O)N[C@@H](CO)Cc4c[nH]c5ccccc45)c2)OCC=C3)cc1Cl` [Example 2, 6-(3-Chloro-4-methylcarbamoyl-phenyl)-2H-chromene-8-carboxylic acid [(R)-2-hydroxy-1-(1H-indol-3-ylmethyl)-ethyl]-amide]: the IC50 is 0.13 µM. The value for `C=CC1Cc2cc(-c3ccc(OC)c(OC)c3)cc(C(=O)N[C@@H](CO)Cc3c[nH]c4ccccc34)c2O1` (mixture of isomers) [Example 12, 5-(3,4-Dimethoxy-phenyl)-2-vinyl-2,3-dihydro-benzofuran-7-carboxylic acid [(R)-1-hydroxymethyl-2-(1H-indol-3-yl)-ethyl]-amide] was 0.35 µM; that for `CNC(=O)c1cc(F)cc(-c2cc3c(c(C(=O)N[C@@H](CO)Cc4c[nH]c5ccccc45)c2)OC(C)(C)C=C3)c1` [Example 8, 6-(3-Fluoro-5-methylcarbamoyl-phenyl)-2,2-dimethyl-2H-chromene-8-carboxylic acid [(R)-2-hydroxy-1-(1 H-indol-3-yl-methyl)-ethyl]-amide] was 0.014 µM. As to `CNC(=O)c1ccc(-c2cc3c(c(C(=O)N[C@@H](CO)Cc4c[nH]c5ccccc45)c2)OCCO3)cc1Cl` [Example 14, 7-(3-Chloro-4-methylcarbamoyl-phenyl)-2,3-dihydro-benzo[1,4]dioxine-5-carboxylic acid [(R)-2-hydroxy-1-(1 H-indol-3-ylmethyl)-ethyl]-amide], the IC50 amounted to 0.45 µM. The value for `Cc1ccccc1C#Cc1cc2c(c(C(=O)N[C@@H](CO)Cc3c[nH]c4ccccc34)c1)OCC=C2` [Example 4, 6-o-Tolylethynyl-2H-chromene-8-carboxylic acid [(R)-1-hydroxymethyl-2-(1H-indol-3-yl)-ethyl]-amide] was 0.45 µM.
